Test results reported in patent publication US9149038B2, “4-amino-6-(heterocyclic)picolinates and 6-amino-2-(heterocyclic)pyrimidine-4-carboxylates and their use as herbicides” (Dow AgroSciences LLC, priority 2013, dated 2015).
Where two headings read alike, the source gives them in different places.

Key:
[1] = test system: Key Grass and Sedge Weeds as well as Grass Crops; assay: Post-Emergent Test II: postemergent herbicidal activity, visual rating after 14 d (Table 8); format: in vivo; settings: post-emergence, 336 h; for pest or weed control at 35 g/ha: 35 g ai/ha; for pest or weed control at 70 g/ha: 70 g ai/ha; for pest or weed control at 140 g/ha: 140 g ai/ha
Method in brief: (§1)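 Visual 0-100% injury score (0 no injury, 100 complete kill) at 14 d post-spray, relative to untreated plants. Seedlings at 1st-2nd true leaf stage; track sprayer at 187 L/ha, highest rate plus ½×, ¼×, ⅛×, 1/16× serial dilutions. Subirrigated after treatment.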

[2] = test system: Key Broadleaf Weed and Crop Species; assay: Post-Emergent Test II: postemergent herbicidal activity, visual rating after 14 d (Table 7); format: in vivo; settings: post-emergence, 336 h; for pest or weed control at 35 g/ha: 35 g ai/ha; for pest or weed control at 70 g/ha: 70 g ai/ha; for pest or weed control at 140 g/ha: 140 g ai/ha
Method in brief: as §1

[3] = barnyardgrass (Echinochloa crus-galli), read-out: Visual Growth Reduction (%) 14 Days After Application ECHCG
[4] = giant foxtail (Setaria faberi), read-out: Visual Growth Reduction (%) 14 Days After Application SETFA
[5] = maize, corn (Zea mays), read-out: Visual Growth Reduction (%) 14 Days After Application ZEAMX
[6] = rice (Oryza sativa), read-out: Visual Growth Reduction (%) 14 Days After Application ORYSA
[7] = wheat, spring (Triticum aestivum), read-out: Visual Growth Reduction (%) 14 Days After Application TRZAS
[8] = yellow nutsedge (Cyperus esculentus), read-out: Visual Growth Reduction (%) 14 Days After Application CYPES
[9] = lambsquarters (Chenopodium album), read-out: Visual Growth Reduction (%) 14 Days After Application CHEAL
[10] = oilseed rape, canola (Brassica napus), read-out: Visual Growth Reduction (%) 14 Days After Application BRSNN
[11] = redroot pigweed (Amaranthus retroflexus), read-out: Visual Growth Reduction (%) 14 Days After Application AMARE
[12] = sunflower (Helianthus annuus), read-out: Visual Growth Reduction (%) 14 Days After Application HELAN
[13] = velvetleaf (Abutilon theophrasti), read-out: Visual Growth Reduction (%) 14 Days After Application ABUTH
[14] = wild poinsettia (Euphorbia heterophylla), read-out: Visual Growth Reduction (%) 14 Days After Application EPHHL

| Structure (SMILES) | pest or weed control at 35 g/ha [1, 3] | pest or weed control at 70 g/ha [1, 3] | pest or weed control at 140 g/ha [1, 3] | pest or weed control at 35 g/ha [1, 4] | pest or weed control at 70 g/ha [1, 4] | pest or weed control at 140 g/ha [1, 4] | pest or weed control at 35 g/ha [1, 5] | pest or weed control at 70 g/ha [1, 5] | pest or weed control at 140 g/ha [1, 5] | pest or weed control at 35 g/ha [1, 6] | pest or weed control at 70 g/ha [1, 6] | pest or weed control at 140 g/ha [1, 6] | pest or weed control at 35 g/ha [1, 7] | pest or weed control at 70 g/ha [1, 7] | pest or weed control at 140 g/ha [1, 7] | pest or weed control at 35 g/ha [1, 8] | pest or weed control at 70 g/ha [1, 8] | pest or weed control at 140 g/ha [1, 8] | pest or weed control at 35 g/ha [2, 9] | pest or weed control at 70 g/ha [2, 9] | also measured |
| --- | --- | --- | --- | --- | --- | --- | --- | --- | --- | --- | --- | --- | --- | --- | --- | --- | --- | --- | --- | --- | --- |
| C=Cc1c(C(=O)O)nc(-c2cc3c(cc2F)OC(F)(F)O3)c(F)c1N [Compound 28] | 60 to 74% | 75 to 84% | 75 to 84% | 0 to 29% | 45 to 59% | 60 to 74% | 60 to 74% | 60 to 74% | 75 to 84% | 0 to 29% | 0 to 29% | 0 to 29% | 0 to 29% | 0 to 29% | 30 to 44% | 95 to 100% | 95 to 100% | 95 to 100% | 0 to 29% | 0 to 29% | pest or weed control at 140 g/ha [2, 9]: 0 to 29%; pest or weed control at 35 g/ha [2, 10]: 0 to 29%; pest or weed control at 70 g/ha [2, 10]: 0 to 29%; pest or weed control at 140 g/ha [2, 10]: 60 to 74%; pest or weed control at 35 g/ha [2, 11]: 0 to 29%; pest or weed control at 70 g/ha [2, 11]: 0 to 29%; pest or weed control at 140 g/ha [2, 11]: 0 to 29%; pest or weed control at 35 g/ha [2, 12]: 85 to 94%; pest or weed control at 70 g/ha [2, 12]: 85 to 94%; pest or weed control at 140 g/ha [2, 12]: 95 to 100%; pest or weed control at 35 g/ha [2, 13]: 0 to 29%; pest or weed control at 70 g/ha [2, 13]: 0 to 29%; pest or weed control at 140 g/ha [2, 13]: 60 to 74%; pest or weed control at 35 g/ha [2, 14]: 95 to 100%; pest or weed control at 70 g/ha [2, 14]: 95 to 100%; pest or weed control at 140 g/ha [2, 14]: 95 to 100% |
| C=Cc1c(C(=O)O)nc(-c2ccc3c(c2)OC(F)(F)O3)c(F)c1N [Compound 30] | 75 to 84% | 75 to 84% | 75 to 84% | 0 to 29% | 0 to 29% | 0 to 29% | 45 to 59% | 60 to 74% | 75 to 84% | 0 to 29% | 0 to 29% | 0 to 29% | 0 to 29% | 0 to 29% | 0 to 29% | 0 to 29% | 95 to 100% | 95 to 100% | 0 to 29% | 0 to 29% | pest or weed control at 140 g/ha [2, 9]: 0 to 29%; pest or weed control at 35 g/ha [2, 10]: 45 to 59%; pest or weed control at 70 g/ha [2, 10]: 60 to 74%; pest or weed control at 140 g/ha [2, 10]: 75 to 84%; pest or weed control at 35 g/ha [2, 11]: 0 to 29%; pest or weed control at 70 g/ha [2, 11]: 0 to 29%; pest or weed control at 140 g/ha [2, 11]: 0 to 29%; pest or weed control at 35 g/ha [2, 12]: 0 to 29%; pest or weed control at 70 g/ha [2, 12]: 0 to 29%; pest or weed control at 140 g/ha [2, 12]: 85 to 94%; pest or weed control at 35 g/ha [2, 13]: 45 to 59%; pest or weed control at 70 g/ha [2, 13]: 75 to 84%; pest or weed control at 140 g/ha [2, 13]: 75 to 84%; pest or weed control at 35 g/ha [2, 14]: 60 to 74%; pest or weed control at 70 g/ha [2, 14]: 75 to 84%; pest or weed control at 140 g/ha [2, 14]: 85 to 94% |
| C=Cc1c(C(=O)OC)nc(-c2cc3c(cc2F)OCO3)c(F)c1N [Compound 31] | 0 to 29% | 60 to 74% | 75 to 84% | 0 to 29% | 0 to 29% | 0 to 29% | 0 to 29% | 30 to 44% | 45 to 59% | 0 to 29% | 0 to 29% | 0 to 29% | 0 to 29% | 0 to 29% | 0 to 29% | 0 to 29% | 0 to 29% | 0 to 29% | 0 to 29% | 0 to 29% | pest or weed control at 140 g/ha [2, 9]: 0 to 29%; pest or weed control at 35 g/ha [2, 10]: 0 to 29%; pest or weed control at 70 g/ha [2, 10]: 0 to 29%; pest or weed control at 140 g/ha [2, 10]: 45 to 59%; pest or weed control at 35 g/ha [2, 11]: 85 to 94%; pest or weed control at 70 g/ha [2, 11]: 85 to 94%; pest or weed control at 140 g/ha [2, 11]: 95 to 100%; pest or weed control at 35 g/ha [2, 12]: 45 to 59%; pest or weed control at 70 g/ha [2, 12]: 85 to 94%; pest or weed control at 140 g/ha [2, 12]: 85 to 94%; pest or weed control at 35 g/ha [2, 13]: 0 to 29%; pest or weed control at 70 g/ha [2, 13]: 0 to 29%; pest or weed control at 140 g/ha [2, 13]: 45 to 59%; pest or weed control at 35 g/ha [2, 14]: 95 to 100%; pest or weed control at 70 g/ha [2, 14]: 95 to 100%; pest or weed control at 140 g/ha [2, 14]: 95 to 100% |
